# Reference: PubChem BioAssay (NCI)
#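 Values below derive from 48-hour exposures of cells grown in 96-well plates, with endpoints linearly interpolated between the two concentrations bracketing the appropriate inhibition level. Abbreviation: GI50, concentration required for 50% inhibition of growth. At the TGI there is no net growth.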
# Key:
# Assay in all cases: NCI anticancer screen, dose series, 48 h
# A498 renal = tested on: A498 renal
# CCRF-CEM leukemia = tested on: CCRF-CEM leukemia
# IGROV1 ovarian = tested on: IGROV1 ovarian
# NCI-H522 lung = tested on: NCI-H522 lung
# RPMI-8226 leukemia = tested on: RPMI-8226 leukemia
# SF-268 CNS = tested on: SF-268 CNS
# SF-295 CNS = tested on: SF-295 CNS
# SNB-19 CNS = tested on: SNB-19 CNS
# SR leukemia = tested on: SR leukemia
# UACC-62 melanoma = tested on: UACC-62 melanoma
Structure (SMILES),GI50 (A498 renal),TGI (A498 renal),GI50 (CCRF-CEM leukemia),TGI (CCRF-CEM leukemia),GI50 (IGROV1 ovarian),TGI (IGROV1 ovarian),GI50 (NCI-H522 lung),TGI (NCI-H522 lung),GI50 (RPMI-8226 leukemia),TGI (RPMI-8226 leukemia),GI50 (SF-268 CNS),TGI (SF-268 CNS),GI50 (SF-295 CNS),TGI (SF-295 CNS),GI50 (SNB-19 CNS),TGI (SNB-19 CNS),GI50 (SR leukemia),TGI (SR leukemia),GI50 (UACC-62 melanoma),TGI (UACC-62 melanoma)
COc1cccc(-c2nn(-c3ccccc3)cc2-c2ccnc(NCCNS(=O)(=O)c3ccc(Cl)cc3)c2)c1,3.4 µM,> 100 µM,3.47 µM,> 100 µM,6.63 µM,> 100 µM,2.47 µM,9.76 µM,2.74 µM,13.3 µM,5.49 µM,> 100 µM,3.89 µM,57.5 µM,7.44 µM,> 100 µM,2.25 µM,6.59 µM,5.51 µM,> 100 µM
Oc1ccc(C(c2ccccc2)(c2ccccc2)c2ccccc2)cc1,20.5 µM,35.1 µM,21.1 µM,39.5 µM,14.3 µM,27.6 µM,13.7 µM,27.2 µM,22 µM,45.5 µM,21.5 µM,69.4 µM,27.2 µM,> 100 µM,16.8 µM,32.2 µM,25.4 µM,56.9 µM,16 µM,30.6 µM
O=C1OC(c2ccco2)=N/C1=C\c1ccc(Cl)c(Cl)c1,,> 100 µM,,> 100 µM,,> 100 µM,,> 100 µM,,> 100 µM,,> 100 µM,,> 100 µM,,> 100 µM,,> 100 µM,,> 100 µM
Nc1c(C(=O)Nc2ccccc2)sc2nc3c(cc12)CCCCCC3,0.248 µM,1.31 µM,0.345 µM,> 100 µM,0.863 µM,19.9 µM,0.271 µM,1.29 µM,0.379 µM,15.7 µM,1.14 µM,20.1 µM,0.291 µM,1.69 µM,0.476 µM,24.9 µM,0.138 µM,30.9 µM,0.428 µM,12.9 µM
CC1=CC=NN2C(=O)[C@H](C)C2C1 (some centres not stated),,> 100 µM,,> 100 µM,,> 100 µM,,> 100 µM,,> 100 µM,,> 100 µM,,> 100 µM,,> 100 µM,,> 100 µM,,> 100 µM
CCN1C(=O)C/C(=C\C(C)=O)Nc2ccccc21,> 100 µM,> 100 µM,,> 100 µM,,> 100 µM,,> 100 µM,> 100 µM,> 100 µM,,> 100 µM,,> 100 µM,,> 100 µM,,> 100 µM,,> 100 µM
CCC1=C(C)/C(=C/c2[nH]c(C)c(C(=O)CCCCC(=O)OC)c2C)N=C1c1ccc[nH]1,23.9 µM,59.5 µM,0.204 µM,6.63 µM,21.5 µM,> 63.8 µM,2.36 µM,6.37 µM,3.37 µM,13.9 µM,7.15 µM,47.7 µM,18.6 µM,42 µM,15.1 µM,38.4 µM,1.3 µM,5.49 µM,8.7 µM,38.9 µM
CC(C)(C)[OH+][O-].[O-]c1ccc(Cl)cc1C=Nc1ccc(Cl)cc1[O-].[O]=[V],27.7 µM,64.2 µM,3.93 µM,35.3 µM,0.542 µM,14.2 µM,9.12 µM,25.1 µM,6.97 µM,> 100 µM,23.7 µM,69.3 µM,10.7 µM,33.5 µM,25.1 µM,66.2 µM,7.79 µM,> 100 µM,10.7 µM,37.5 µM
CN/N=C(/Cc1occc(=O)c1O)C(=O)Nc1ccc(C)c(C)c1,,> 100 µM,,> 100 µM,,> 100 µM,,> 100 µM,,> 100 µM,,> 100 µM,,> 100 µM,,> 100 µM,,> 100 µM,,> 100 µM
CC(O)C1OC(O)C2OC(C)(C)OC12 (configuration not stated),,> 100 µM,,> 100 µM,,> 100 µM,,> 100 µM,,> 100 µM,,> 100 µM,,> 100 µM,,> 100 µM,,> 100 µM,,> 100 µM
CC(C)(C)NNC(=O)/C(=C/c1ccc(Oc2ccc(Cl)c(Cl)c2)cc1)NC(=O)c1ccccc1,,> 100 µM,,> 100 µM,,> 100 µM,,> 100 µM,,45.1 µM,,> 100 µM,,> 100 µM,,> 100 µM,,35.9 µM,,> 100 µM
C=C1C(=O)O[C@H]2[C@H]1CC/C(COC(=O)C(=O)c1c[nH]c3ccccc13)=C\CC[C@@]1(C)O[C@@H]21,8.56 µM,20.7 µM,1.27 µM,13.1 µM,2.11 µM,4.39 µM,0.878 µM,2.4 µM,2.07 µM,10.9 µM,2.39 µM,7.68 µM,11.8 µM,24.9 µM,10.6 µM,26 µM,1.55 µM,14.3 µM,1.89 µM,4.29 µM
